{"source": "patent US20100292306A1", "about": "“Compositions And Methods For The Treatment Of Muscular Dystrophy” (priority 2005, published 2010)", "key": {"NFκB": {"system": "NFκB", "assay": "Trans AM assays of NFκB in gastrocnemius muscle preparations", "assay_type": "in vivo, mdx mice", "settings": "chronic PDTC", "text": "The Trans AM assay and corresponding electrophoretic mobility shift assays (EMSA), along with Western Blot analyses of IκB-α (FIG. 1) and total cellular NFκB, are useful for screening compounds that inhibit the NFκB pathway in dystrophic skeletal muscle and identifying new compounds that have corresponding beneficial effects in treating dystrophic subjects."}, "cytosolic IκB-α": {"system": "cytosolic IκB-α", "assay": "Western blot of cytosolic IκB-α in mdx diaphragm after a single PDTC dose", "assay_type": "in vivo, mdx mice", "method": "Cytosolic levels of IκB-α may be determined using Western blot techniques. Cytosolic and nuclear fractions may be obtained from isolated diaphragm muscles using the techniques described in Kumar and Boriek, 2003. Briefly, the muscles may be weighed after removing tendinous components, and frozen and homogenized by mortar and pestle in lysis buffer on ice (1 mg muscle/18 μl lysis buffer containing 10 mM HEPES, 10 mM KCl, 1.5 mM MgCl2, 0.1 mM EDTA, 0.1 mM EGTA, 1 mM dithiothreitol, 0.5 mM phenylmethylsulfonylfluoride, 2.0 μg/ml leupeptin, 2.0 μg/ml aprotinin, 0.5 mg/ml benzamidine, at pH 7.9). To lyse the cells, the ground tissue may be subjected to two freeze-thaw cycles and subsequently vortexed and centrifuged (13,000 rpm, 10 s). […]\nEqual amounts of proteins (based on Lowry Assay) from treated vs. untreated cytosolic fractions may be boiled in SDS-PAGE sample buffer for 5 min, applied to 10% SDS-PAGE gel, and blotted onto PVDF (polyvinyl difluoride) membrane. […] After additional washing steps, the antibody complex may be detected by chemiluminescence using the ECL detection reagent (Amersham) and densitometric measurements may also be obtained. […]"}}, "note": "“Also recorded” adds a separate entry of the source."}
{"smiles": "S=C(S)N1CCCC1", "note": "[PDTC, pyrrolidine dithiocarbamate]", "values": [{"measurement": "proportion of total cellular NFκB in the cytosolic fraction", "setting": "NFκB", "result": "increases"}, {"measurement": "proportion of nuclear NFκB", "setting": "NFκB; adult mdx", "result": "reduces"}, {"measurement": "total cellular NFκB", "setting": "NFκB; adult mdx", "result": "reduces"}, {"measurement": "period of increased cytosolic IκB-α levels", "setting": "cytosolic IκB-α; single dose 50 mg/kg ip, adult mdx skeletal muscle", "result": "at least 5 h"}, {"measurement": "ambient levels of cytosolic IκB-α", "setting": "cytosolic IκB-α; single ip dose 50 mg/kg, diaphragm 3 and 5 h after injection, vs vehicle littermates, 50 mg/kg", "result": "substantially increased; also recorded: increases"}]}
